Ten compounds from patent publication US8106045B2, “2-morpholino-4-pyrimidone compound” (Mitsubishi Tanabe Pharma Corporation, priority 2004, dated 2012) can be followed below.

In this assay the target is T1, bovine cerebral TPK1 (Bos taurus, UniProt A0A3Q1MT31).
T1 construct: bovine cerebral TPK1; from tissue; host or cells: bovine cerebrum (brain)
Nature of the assay: Inhibitory activity against P-GS1 phosphorylation by bovine cerebral TPK1. The conditions noted are these: 41.7 μM [γ-32P] ATP, 25° C. for 2 hours. Format: biochemical. How it is done:
Experiment 1: Inhibitory Activity of the Medicament of the Present Invention Against P-GS1 Phosphorylation by Bovine Cerebral TPK1
A mixture containing 100 mM MES-sodium hydroxide (pH 6.5), 1 mM magnesium acetate, 0.5 mM EGTA, 5 mM B-mercaptoethanol, 0.02% Tween 20, 10% glycerol, 12 μg/ml P-GS1, 41.7 μM [γ-^32P] ATP (68 kBq/ml), bovine cerebral TPK1 and a compound shown in Table (a final mixture contained 1.7% DMSO deriving from a solution of a test compound prepared in the presence of 10% DMSO) was used as a reaction system. The phosphorylation was started by adding ATP, and the reaction was conducted at 25° C. for 2 hours, and then stopped by adding 21% perchloric acid on ice cooling. The reaction mixture was centrifuged at 12,000 rpm for 5 minutes and adsorbed on P81 paper (Whatmann), and then the paper was washed four times with 75 mM phosphoric acid, three times with water and once with acetone. The paper was dried, and the residual radioactivity was measured using a liquid scintillation counter.

T1 sequence (A0A3Q1MT31 1-419): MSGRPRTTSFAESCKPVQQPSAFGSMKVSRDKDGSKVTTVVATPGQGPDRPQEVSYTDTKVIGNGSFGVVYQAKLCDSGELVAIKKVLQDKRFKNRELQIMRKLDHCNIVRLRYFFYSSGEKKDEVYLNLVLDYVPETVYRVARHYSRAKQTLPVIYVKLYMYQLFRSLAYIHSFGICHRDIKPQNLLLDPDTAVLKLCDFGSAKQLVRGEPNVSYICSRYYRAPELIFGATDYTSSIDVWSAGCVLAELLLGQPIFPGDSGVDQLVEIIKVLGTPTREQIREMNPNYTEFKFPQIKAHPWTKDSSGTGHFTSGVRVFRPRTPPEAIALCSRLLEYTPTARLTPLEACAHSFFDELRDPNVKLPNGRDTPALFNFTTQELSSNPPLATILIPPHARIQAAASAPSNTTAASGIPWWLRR

Broadly, the IC50 is the concentration needed to halve the response being measured. `CN(c1ccc([C@H]2CN(c3nc(-c4ccncn4)cc(=O)n3C)CCO2)cc1)[C@@H]1CCOC1` [Compound No. 091, 2-((2S)-2-(4-(N-methyl-N-((3R)-tetrahydrofuran-3yl)amino)phenyl)morpholin-4-yl)-3-methyl-6-(pyrimidin-4-yl)-3H-pyrimidin-4-one]: the IC50 was 6.1 nM.

Compound `Cn1c(N2CCO[C@@H](c3ccc(OCCCN4CCCC4)cc3)C2)nc(-c2ccncn2)cc1=O` [Compound No. 202, 2-((2S)-2-(4-(3-(pyrrolidin-1-yl)propyloxy)phenyl)morpholine-4-yl)-3-methyl-6-(pyrimidin-4-yl)-pyrimidin-4-one] registered an IC50 of 0.43 nM.

`Cn1c(N2CCO[C@@H](c3ccc(C(=O)NCCO)cc3)C2)nc(-c2ccncn2)cc1=O` [Compound No. 210, N-(2-hydroxy-ethyl)-4-[(2S)-4-(1-methyl-6-oxo-1,6-dihydro-[4,4′]bipyrimidinyl-2-yl)-morpholin-2-yl]-benzamide] registered an IC50 of 5.4 nM.

`CN(C)CC(=O)Nc1ccc([C@H]2CN(c3nc(-c4ccncn4)cc(=O)n3C)CCO2)cc1` [Compound No. 220, N^2,N^2-Dimethyl-N^1-{4-[(2S)-4-(1-methyl-6-oxo-1,6-dihydro-4,4′-bipyrimidin-2-yl)morpholin-2-yl]phenyl}glycinamide] had an IC50 of 0.48 nM.

Take `COC(=O)Nc1ccc([C@H]2CN(c3nc(-c4ccncc4)cc(=O)n3C)CCO2)cc1` [Compound No. 231, Methyl (4-((2S)-4-(3-methyl-4-oxo-6-(pyridin-4-yl)-3H-pyrimidin-2-yl)morpholin-2-yl)-phenyl)carbamate]: 5.8 nM corresponded to half-maximal inhibition (IC50).

`CN(C)C(=O)Nc1ccc([C@H]2CN(c3nc(-c4ccncc4)cc(=O)n3C)CCO2)cc1` [Compound No. 237, 1,1-Dimethyl-3-{4-[4-(1-methyl-6-oxo-4-pyridin-4-yl-1,6-dihydro-pyrimidin-2-yl)-morpholin-2-yl]-phenyl}-urea] gave an IC50 of 9.7 nM.

Regarding `Cn1c(N2CCO[C@@H](c3ccc(N4CCC(N5CCCC5)CC4)cc3)C2)nc(-c2ccncc2)cc1=O` [compound 6], the IC50 came out at 3.4 nM.

The compound `Cn1c(N2CCO[C@@H](c3ccc(Nc4ccncc4)cc3)C2)nc(-c2ccncc2)cc1=O` [compound 50] gave an IC50 of 4.8 nM.

Take `Cn1c(N2CCO[C@@H](c3ccc(NC(=O)c4ccccc4)cc3)C2)nc(-c2ccncc2)cc1=O` [compound 70]: the IC50 amounted to 5.1 nM.

Consider `Cn1c(N2CCO[C@@H](c3ccc(NC(=O)CN4CCN(c5ccccc5)CC4)cc3)C2)nc(-c2ccncc2)cc1=O` [compound 100], for which 5.2 nM corresponded to half-maximal inhibition (IC50).
